The values below come from US10670605B2, “Cysteine reactive probes and uses thereof” (The Scripps Research Institute, priority 2015, dated 2020).

Holding throughout (test): Competitive isoTOP-ABPP, cell lysates
Common to all, as to format: binding

The target of one experiment is T1, KDM4B C694 (O94953) (Homo sapiens, UniProt O94953).
T1 sequence (O94953 1-1096): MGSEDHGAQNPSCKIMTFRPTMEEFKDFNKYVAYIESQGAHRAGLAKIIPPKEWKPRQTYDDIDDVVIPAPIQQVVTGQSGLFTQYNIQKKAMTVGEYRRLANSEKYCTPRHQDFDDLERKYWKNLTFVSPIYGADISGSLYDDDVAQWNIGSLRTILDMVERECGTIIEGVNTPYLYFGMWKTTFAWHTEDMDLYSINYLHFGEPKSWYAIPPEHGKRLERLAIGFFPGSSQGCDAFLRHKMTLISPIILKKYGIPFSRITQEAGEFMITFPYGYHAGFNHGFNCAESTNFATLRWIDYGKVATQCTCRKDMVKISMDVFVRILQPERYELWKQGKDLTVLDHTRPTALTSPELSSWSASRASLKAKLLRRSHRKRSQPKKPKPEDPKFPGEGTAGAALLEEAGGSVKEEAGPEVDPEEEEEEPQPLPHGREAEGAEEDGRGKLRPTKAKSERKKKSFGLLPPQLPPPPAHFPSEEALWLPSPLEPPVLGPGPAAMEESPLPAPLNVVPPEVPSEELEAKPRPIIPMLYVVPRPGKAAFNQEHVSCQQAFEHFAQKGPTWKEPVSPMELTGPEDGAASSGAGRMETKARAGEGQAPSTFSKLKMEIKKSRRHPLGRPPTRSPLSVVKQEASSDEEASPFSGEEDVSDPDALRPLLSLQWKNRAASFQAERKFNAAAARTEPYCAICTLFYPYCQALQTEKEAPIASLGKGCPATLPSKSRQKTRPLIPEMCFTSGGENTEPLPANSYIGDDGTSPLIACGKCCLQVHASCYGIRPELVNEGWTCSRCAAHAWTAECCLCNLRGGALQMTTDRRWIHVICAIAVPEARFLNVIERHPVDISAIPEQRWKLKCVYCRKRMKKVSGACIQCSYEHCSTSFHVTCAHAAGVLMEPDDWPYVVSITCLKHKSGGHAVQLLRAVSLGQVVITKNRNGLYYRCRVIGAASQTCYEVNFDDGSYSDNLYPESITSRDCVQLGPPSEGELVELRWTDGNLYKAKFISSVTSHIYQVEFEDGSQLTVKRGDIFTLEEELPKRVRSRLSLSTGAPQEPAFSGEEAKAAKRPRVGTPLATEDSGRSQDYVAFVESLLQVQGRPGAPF
Conditions: for isoTOP-ABPP ratio, O94953_C694 / R value (DMSO/fragment): 500 μM.

The next experiment deals with CDK5 C157 (Q00535) (Homo sapiens, UniProt Q00535). As to conditions: for isoTOP-ABPP reactivity profile ratio, Q00535_C157 / isoTOP-ABPP reactivity ratio, Q00535_C157: 500 μm.
The target of another experiment is USP16 C205 (Q9Y5T5) (Homo sapiens, UniProt Q9Y5T5). Conditions: for isoTOP-ABPP reactivity profile ratio, Q9Y5T5_C205 / isoTOP-ABPP reactivity ratio, Q9Y5T5_C205: 500 μm; for isoTOP-ABPP ratio, Q9Y5T5_C205: invitro, ramos.
For another experiment, the target named is PFKFB4 C159 (Q16877) (Homo sapiens, UniProt Q16877). Conditions: for isoTOP-ABPP reactivity ratio, Q16877_C159: 500 μm, in-vitro_ramos; for isoTOP-ABPP ratio, Q16877_C159: 500 μM, invitro.
The target of the next experiment is T2, IRF8 C306 (Q02556) (Homo sapiens, UniProt Q02556).
T2 sequence (Q02556 1-426): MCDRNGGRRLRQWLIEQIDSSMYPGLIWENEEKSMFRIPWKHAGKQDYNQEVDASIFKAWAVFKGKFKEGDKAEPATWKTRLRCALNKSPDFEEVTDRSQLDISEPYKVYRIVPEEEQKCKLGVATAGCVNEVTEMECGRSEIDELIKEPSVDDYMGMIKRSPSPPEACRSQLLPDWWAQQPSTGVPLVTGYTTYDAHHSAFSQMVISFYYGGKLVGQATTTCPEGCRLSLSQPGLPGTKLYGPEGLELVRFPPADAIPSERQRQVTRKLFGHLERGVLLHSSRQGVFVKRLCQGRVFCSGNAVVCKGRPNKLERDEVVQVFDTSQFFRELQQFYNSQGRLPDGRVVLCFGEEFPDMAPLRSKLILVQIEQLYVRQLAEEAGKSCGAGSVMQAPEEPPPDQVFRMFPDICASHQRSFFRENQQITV
Conditions: for isoTOP-ABPP ratio (reactivity profile), Q02556_C306: 500 μm in-vitro ramos; for isoTOP-ABPP ratio, Q02556_C306: 500 μM, invitro, ramos.

Sequence of USP16 C205 (Q9Y5T5) (Q9Y5T5 whole entry): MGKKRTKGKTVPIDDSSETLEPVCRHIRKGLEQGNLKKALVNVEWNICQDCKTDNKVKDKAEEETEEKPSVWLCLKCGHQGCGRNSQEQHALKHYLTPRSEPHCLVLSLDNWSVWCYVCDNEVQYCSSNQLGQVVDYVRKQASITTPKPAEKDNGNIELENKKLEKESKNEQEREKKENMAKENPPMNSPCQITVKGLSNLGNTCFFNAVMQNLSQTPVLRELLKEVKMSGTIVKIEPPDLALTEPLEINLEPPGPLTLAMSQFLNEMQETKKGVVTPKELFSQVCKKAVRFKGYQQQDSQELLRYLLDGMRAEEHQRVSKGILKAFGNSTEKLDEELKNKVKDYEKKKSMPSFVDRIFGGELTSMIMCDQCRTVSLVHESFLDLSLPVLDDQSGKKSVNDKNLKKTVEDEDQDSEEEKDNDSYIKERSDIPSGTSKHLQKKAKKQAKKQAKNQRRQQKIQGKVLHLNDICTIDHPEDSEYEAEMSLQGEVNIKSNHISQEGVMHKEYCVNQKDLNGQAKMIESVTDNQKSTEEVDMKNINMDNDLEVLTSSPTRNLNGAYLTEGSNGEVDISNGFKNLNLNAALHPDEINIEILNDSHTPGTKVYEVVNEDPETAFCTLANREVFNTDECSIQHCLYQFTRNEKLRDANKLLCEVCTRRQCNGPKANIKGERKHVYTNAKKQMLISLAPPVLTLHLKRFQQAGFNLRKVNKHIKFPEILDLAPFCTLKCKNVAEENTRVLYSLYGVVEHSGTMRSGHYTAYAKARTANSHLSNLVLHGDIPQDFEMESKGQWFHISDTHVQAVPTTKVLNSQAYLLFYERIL
Sequence of CDK5 C157 (Q00535) (Q00535 whole entry): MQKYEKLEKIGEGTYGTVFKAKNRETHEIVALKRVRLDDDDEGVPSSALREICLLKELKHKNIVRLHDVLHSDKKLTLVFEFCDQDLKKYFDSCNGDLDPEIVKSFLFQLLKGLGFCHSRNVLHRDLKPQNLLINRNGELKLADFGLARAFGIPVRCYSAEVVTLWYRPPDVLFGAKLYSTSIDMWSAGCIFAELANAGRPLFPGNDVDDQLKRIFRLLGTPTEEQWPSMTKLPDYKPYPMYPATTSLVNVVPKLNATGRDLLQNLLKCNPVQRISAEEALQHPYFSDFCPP
Sequence of PFKFB4 C159 (Q16877) (Q16877 whole entry): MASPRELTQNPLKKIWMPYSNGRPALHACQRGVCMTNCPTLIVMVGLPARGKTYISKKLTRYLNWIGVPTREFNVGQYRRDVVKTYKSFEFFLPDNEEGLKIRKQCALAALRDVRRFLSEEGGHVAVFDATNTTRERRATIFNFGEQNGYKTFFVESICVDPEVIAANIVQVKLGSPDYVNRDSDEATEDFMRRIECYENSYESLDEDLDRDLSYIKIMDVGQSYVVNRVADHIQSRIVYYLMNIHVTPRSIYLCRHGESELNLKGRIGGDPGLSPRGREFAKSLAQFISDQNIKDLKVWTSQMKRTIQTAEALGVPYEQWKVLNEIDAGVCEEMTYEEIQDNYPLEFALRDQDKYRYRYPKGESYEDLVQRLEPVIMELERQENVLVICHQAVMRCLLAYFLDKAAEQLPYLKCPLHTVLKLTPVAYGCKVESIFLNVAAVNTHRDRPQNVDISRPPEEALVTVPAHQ

`CNS(=O)(=O)C=Cc1ccc2c(ccn2Cc2ccccc2)c1` [compound 6]: on KDM4B C694 (O94953) (invitro, 231), the “isoTOP-ABPP ratio, O94953_C694” value is listed as 1.1.
Take `C=CC(=O)N1CCC(Cc2ccccc2)CC1` [compound 53]: the “isoTOP-ABPP reactivity profile ratio, Q00535_C157” value at CDK5 C157 (Q00535) (in-vitro_ramos) is listed as 0.8; on CDK5 C157 (Q00535) (in-vitro_ramos_231), 1.2. Further, at USP16 C205 (Q9Y5T5) (in-vitro_ramos_231), the “isoTOP-ABPP reactivity profile ratio, Q9Y5T5_C205” value is on record as 1.1.
On to `O=C(CCl)N(Cc1ccc(F)cc1)C12CC3CC(CC(C3)C1)C2` [compound 34], for which, on CDK5 C157 (Q00535) (in-vitro_ramos_231), the “isoTOP-ABPP reactivity ratio, Q00535_C157” value was found to be 0.7. Also, the “isoTOP-ABPP reactivity ratio, Q16877_C159” value at PFKFB4 C159 (Q16877) is on record as 1.4.
For `COc1ccc2c(c1)CCCN2C(=O)CCl` [compound 2], the “R value (DMSO/fragment)” value on CDK5 C157 (Q00535) (500 μM, invitro, ramos) was 3.2; at KDM4B C694 (O94953) (in vitro, MDA-MB-231), 20.0; on KDM4B C694 (O94953) (invitro, ramos) it was 5.1; on USP16 C205 (Q9Y5T5) (500 μM, in vitro, MDA-MB-231), 20.0.
`COc1ccccc1OCCNC(=O)CCl` [compound 28]: the results for the “isoTOP-ABPP ratio (reactivity profile), Q00535_C157” value on CDK5 C157 (Q00535) (500 μm in-vitro ramos) and at CDK5 C157 (Q00535) (500 μm in-vitro ramos_231) were 1.0 and 0.9, respectively. Moreover, the “isoTOP-ABPP ratio (reactivity profile), Q9Y5T5_C205” value at USP16 C205 (Q9Y5T5) (500 μm in-vitro ramos) came out at 1.6.
`C=CC(=O)N(Cc1cccnc1)c1ccc(Oc2ccccc2)c(C(F)(F)F)c1` [compound 15]: the “isoTOP-ABPP ratio (reactivity profile), Q02556_C306” value on IRF8 C306 (Q02556) is on record as 2.1. For the same compound, on KDM4B C694 (O94953) (500 μm in-vitro ramos), the “isoTOP-ABPP ratio (reactivity profile), O94953_C694” value stood at 1.1.
`O=C(CCl)NCCc1c[nH]c2ccccc12` [compound 13]: the “isoTOP-ABPP ratio, Q02556_C306” value on IRF8 C306 (Q02556) is given as 0.7. Moreover, the “isoTOP-ABPP ratio, O94953_C694” value at KDM4B C694 (O94953) (invitro, 231) was 1.4; at KDM4B C694 (O94953) (invitro, ramos) it was 1.1. In addition, the “isoTOP-ABPP ratio, Q16877_C159” value at PFKFB4 C159 (Q16877) (231) came out at 0.9. Besides, the “isoTOP-ABPP ratio, Q9Y5T5_C205” value on USP16 C205 (Q9Y5T5) (500 μM) stood at 3.3.
For `Cc1ccc(C=C(C#N)C(=O)NCCN2CCOCC2)cc1` [compound 41], the “isoTOP-ABPP reactivity ratio, Q00535_C157” value on CDK5 C157 (Q00535) (in-vitro_ramos_231) came out at 1.5. Further, the “isoTOP-ABPP reactivity ratio, Q02556_C306” value on IRF8 C306 (Q02556) (500 μm, in-vitro_ramos) is listed as 1.4. In addition, the “isoTOP-ABPP reactivity ratio, Q9Y5T5_C205” value on USP16 C205 (Q9Y5T5) (in-vitro_ramos_231) was 0.8.
`CC(Br)C(=O)Nc1cc(C(F)(F)F)cc(C(F)(F)F)c1` (stereo not shown) [compound 24]: the “isoTOP-ABPP ratio (reactivity profile), Q02556_C306” value at IRF8 C306 (Q02556) was found to be 1.2.
Consider `CC(C)(C)c1cc(NC(=O)CCl)on1` [compound 32], for which the “isoTOP-ABPP reactivity ratio, Q00535_C157” value on CDK5 C157 (Q00535) (in-vitro_ramos) and on CDK5 C157 (Q00535) (in-vitro_ramos_231) was 1.7 each time. In addition, the “isoTOP-ABPP reactivity ratio, Q16877_C159” value on PFKFB4 C159 (Q16877) was determined as 1.5.
In the case of `COc1cc(NC(=O)CCl)cc(OC)c1` [compound 43], on CDK5 C157 (Q00535) (in-vitro_ramos), the “isoTOP-ABPP reactivity profile ratio, Q00535_C157” value is 1.2. The “isoTOP-ABPP reactivity profile ratio, Q02556_C306” value at IRF8 C306 (Q02556) (500 μm, in-vitro_ramos) stood at 2.7. In addition, at KDM4B C694 (O94953) (500 μm, in-vitro_ramos_231), the “isoTOP-ABPP reactivity profile ratio, O94953_C694” value was found to be 20.0.
Consider `C=CC(=O)N(c1ccccc1)c1ccc(Br)cc1` [compound 5], for which the “isoTOP-ABPP ratio, Q00535_C157” value on CDK5 C157 (Q00535) (500 μM, invitro, ramos) is 20.0. Also, the “isoTOP-ABPP ratio, Q02556_C306” value at IRF8 C306 (Q02556) was determined as 2.6. In addition, the “isoTOP-ABPP ratio, Q16877_C159” value on PFKFB4 C159 (Q16877) (ramos) came out at 20.0. The “isoTOP-ABPP ratio, Q9Y5T5_C205” value at USP16 C205 (Q9Y5T5) (500 μM) turned out to be 1.1.
For the compound `O=C(CCl)Nc1ccc(-c2ccccc2)cc1` [compound 52], the “isoTOP-ABPP reactivity profile ratio, O94953_C694” value on KDM4B C694 (O94953) (500 μm, in-vitro_ramos) was 1.4.
With `C=CC(=O)Nc1cc(F)c(N2CCN(C(=O)OC(C)(C)C)CC2)c(F)c1` [compound 38], the “isoTOP-ABPP reactivity ratio, Q00535_C157” value at CDK5 C157 (Q00535) (in-vitro_ramos_231) is recorded as 0.9. Further, the “isoTOP-ABPP reactivity ratio, O94953_C694” value at KDM4B C694 (O94953) (500 μm, in-vitro_ramos) is recorded as 2.4. Also, the “isoTOP-ABPP reactivity ratio, Q9Y5T5_C205” value on USP16 C205 (Q9Y5T5) (in-vitro_ramos) stood at 1.9.
With `C=CC(=O)N(Cc1cccnc1)c1cc(C(F)(F)F)cc(C(F)(F)F)c1` [compound 31], at CDK5 C157 (Q00535) (in-vitro_ramos), the “isoTOP-ABPP reactivity ratio, Q00535_C157” value is 1.1.
With `C=CC(=O)N(c1ccccc1)C1CCCCC1` [compound 46], the “isoTOP-ABPP reactivity profile ratio, Q9Y5T5_C205” value at USP16 C205 (Q9Y5T5) (in-vitro_ramos_231) is listed as 1.0.
